Results published in ChEMBL document CHEMBL1153801, “4-(Benzimidazol-2-yl)-1,2,5-oxadiazol-3-ylamine derivatives: potent and selective p70S6 kinase inhibitors” (Bioorg Med Chem Lett, 2009).
Each block holds one compound with its values, some of them ahead of it.

What was measured:
[1] = target: Rho-associated protein kinase 1 (Homo sapiens, UniProt Q13464)
Description: Inhibition of ROCK1 assessed as decrease in NADH absorbance at 340 nm in the presence of

[2] = target: Glycogen synthase kinase-3 beta (Homo sapiens, UniProt P49841)
[3] = target: Ribosomal protein S6 kinase beta-1 (Homo sapiens, UniProt P23443); assay: Inhibition of p70S6K assessed as decrease in NADH absorbance at 340 nm in the presence of
Ribosomal protein S6 kinase beta-1, sequence (P23443 whole entry): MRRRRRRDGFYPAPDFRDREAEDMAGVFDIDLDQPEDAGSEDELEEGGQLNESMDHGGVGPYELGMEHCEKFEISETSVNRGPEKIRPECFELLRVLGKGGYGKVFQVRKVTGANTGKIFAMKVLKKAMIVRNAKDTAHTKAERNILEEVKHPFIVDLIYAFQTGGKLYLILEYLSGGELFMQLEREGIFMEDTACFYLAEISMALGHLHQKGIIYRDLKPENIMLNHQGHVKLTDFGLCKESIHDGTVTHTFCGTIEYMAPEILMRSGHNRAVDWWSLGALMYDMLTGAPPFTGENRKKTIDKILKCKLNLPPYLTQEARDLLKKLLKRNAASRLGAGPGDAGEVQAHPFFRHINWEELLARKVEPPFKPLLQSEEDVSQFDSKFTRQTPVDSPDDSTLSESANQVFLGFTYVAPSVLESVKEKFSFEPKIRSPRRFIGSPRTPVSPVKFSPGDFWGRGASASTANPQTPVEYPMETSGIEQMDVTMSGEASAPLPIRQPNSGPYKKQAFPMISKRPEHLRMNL

[4] = target: cAMP-dependent protein kinase catalytic subunit alpha (Homo sapiens, UniProt P17612); assay: Inhibition of PKAalpha assessed as decrease in NADH absorbance at 340 nm in the presence of

Glycogen synthase kinase-3 beta, sequence (P49841 whole entry): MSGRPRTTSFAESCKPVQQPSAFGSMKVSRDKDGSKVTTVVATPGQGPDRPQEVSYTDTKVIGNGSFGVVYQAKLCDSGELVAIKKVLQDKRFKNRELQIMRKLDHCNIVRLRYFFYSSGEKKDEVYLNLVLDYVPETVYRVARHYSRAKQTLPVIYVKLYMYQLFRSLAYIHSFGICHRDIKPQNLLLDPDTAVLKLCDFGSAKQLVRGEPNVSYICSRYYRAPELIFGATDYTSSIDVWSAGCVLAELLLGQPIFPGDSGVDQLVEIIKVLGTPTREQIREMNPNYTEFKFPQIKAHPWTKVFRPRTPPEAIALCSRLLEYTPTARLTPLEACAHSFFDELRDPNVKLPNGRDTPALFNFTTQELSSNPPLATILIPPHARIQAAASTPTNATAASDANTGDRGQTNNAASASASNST
Rho-associated protein kinase 1, sequence (Q13464 whole entry): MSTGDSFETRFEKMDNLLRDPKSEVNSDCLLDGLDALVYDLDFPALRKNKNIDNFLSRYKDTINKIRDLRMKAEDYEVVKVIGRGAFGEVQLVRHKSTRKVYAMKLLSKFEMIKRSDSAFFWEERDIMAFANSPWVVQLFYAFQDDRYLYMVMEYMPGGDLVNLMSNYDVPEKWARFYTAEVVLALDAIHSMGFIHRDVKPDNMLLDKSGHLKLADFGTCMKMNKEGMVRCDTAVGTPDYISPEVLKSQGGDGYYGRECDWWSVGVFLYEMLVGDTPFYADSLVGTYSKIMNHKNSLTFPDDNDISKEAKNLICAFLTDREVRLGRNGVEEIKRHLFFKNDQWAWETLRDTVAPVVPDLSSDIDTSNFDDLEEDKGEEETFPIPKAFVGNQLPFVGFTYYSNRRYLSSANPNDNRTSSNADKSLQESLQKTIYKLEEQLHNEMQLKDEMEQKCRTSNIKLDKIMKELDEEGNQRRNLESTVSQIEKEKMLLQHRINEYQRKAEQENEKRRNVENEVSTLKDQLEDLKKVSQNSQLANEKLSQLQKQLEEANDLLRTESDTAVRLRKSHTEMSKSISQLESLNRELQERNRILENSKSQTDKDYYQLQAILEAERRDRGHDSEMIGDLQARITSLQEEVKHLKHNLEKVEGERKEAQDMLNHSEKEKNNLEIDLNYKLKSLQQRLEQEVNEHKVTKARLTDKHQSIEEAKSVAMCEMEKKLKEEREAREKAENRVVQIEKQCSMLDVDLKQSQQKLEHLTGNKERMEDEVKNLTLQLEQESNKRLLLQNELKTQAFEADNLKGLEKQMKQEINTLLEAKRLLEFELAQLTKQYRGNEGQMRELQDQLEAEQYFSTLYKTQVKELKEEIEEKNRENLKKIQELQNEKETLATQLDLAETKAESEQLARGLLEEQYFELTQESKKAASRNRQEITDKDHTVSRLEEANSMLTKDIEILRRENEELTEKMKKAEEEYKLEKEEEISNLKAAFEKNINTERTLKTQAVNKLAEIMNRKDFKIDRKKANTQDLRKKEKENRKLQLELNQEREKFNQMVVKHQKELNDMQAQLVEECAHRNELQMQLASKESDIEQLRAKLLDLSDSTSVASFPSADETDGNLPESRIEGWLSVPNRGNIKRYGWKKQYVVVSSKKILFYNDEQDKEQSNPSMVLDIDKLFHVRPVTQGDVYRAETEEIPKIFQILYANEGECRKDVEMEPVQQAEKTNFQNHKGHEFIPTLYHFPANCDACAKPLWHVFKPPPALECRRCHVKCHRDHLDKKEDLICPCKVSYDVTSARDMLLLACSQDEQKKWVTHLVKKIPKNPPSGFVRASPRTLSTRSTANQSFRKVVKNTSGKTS

SMILES: Cc1cn(CC(C)C)c(-c2nonc2N)n1
Ki [1]: > 3.3 µM
Ki [2]: 0.69 µM
Ki [3]: 0.34 µM
Ki [4]: > 3.3 µM

SMILES: COc1cccc(-n2c(-c3nonc3N)nc3ccccc32)c1
Ki [1]: > 5 µM
Ki [2]: > 5 µM
Ki [3]: 1.9 µM

SMILES: COc1ccc(-n2c(-c3nonc3N)nc3ccccc32)cc1
Ki [1]: 2.1 µM
Ki [2]: > 5 µM
Ki [3]: 0.55 µM
Ki [4]: > 4 µM

SMILES: Nc1nonc1-c1nc2ccccc2n1-c1ccccc1
Ki [1]: 0.59 µM
Ki [2]: 0.62 µM
Ki [3]: 0.11 µM
Ki [4]: 1.3 µM

SMILES: N#Cc1ccccc1-n1c(-c2nonc2N)nc2ccccc21
Ki [1]: 0.81 µM
Ki [2]: > 3.3 µM
Ki [3]: 0.026 µM
Ki [4]: > 5 µM

SMILES: N#Cc1cccc(-n2c(-c3nonc3N)nc3ccccc32)c1
Ki [1]: > 2.5 µM
Ki [2]: > 2.5 µM
Ki [3]: 0.8 µM
Ki [4]: > 5 µM

SMILES: N#Cc1ccc(-n2c(-c3nonc3N)nc3ccccc32)cc1
Ki [1]: > 2.5 µM
Ki [2]: 1 µM
Ki [3]: 0.8 µM
Ki [4]: > 5 µM

SMILES: COc1ccccc1-n1c(-c2nonc2N)nc2ccccc21
Ki [1]: 1.3 µM
Ki [2]: > 5 µM
Ki [3]: 0.031 µM
Ki [4]: > 5 µM

SMILES: Nc1nonc1-c1nc2ccccc2n1C1CCCCC1
Ki [1]: 0.72 µM
Ki [2]: 0.24 µM
Ki [3]: 0.012 µM
Ki [4]: 0.6 µM

SMILES: Nc1nonc1-c1nc2ccccc2n1CC1CC1
Ki [1]: 0.36 µM
Ki [2]: 0.29 µM
Ki [3]: 0.012 µM
Ki [4]: 0.38 µM

SMILES: CC(C)Cn1c(-c2nonc2N)nc2ccccc21
Ki [1]: 0.93 µM
Ki [3]: 0.022 µM
Ki [4]: 1.1 µM

SMILES: CC(C)n1c(-c2nonc2N)nc2ccccc21
Ki [1]: 1.9 µM
Ki [2]: 1.5 µM
Ki [3]: 0.04 µM
Ki [4]: > 3.3 µM

SMILES: CC(C)Cn1cc(-c2ccccc2)nc1-c1nonc1N
Ki [1]: > 3.3 µM
Ki [2]: > 3.3 µM
Ki [3]: 0.089 µM
Ki [4]: 1.2 µM

SMILES: Nc1nonc1-c1nc2ccccc2n1C1CC1
Ki [1]: 0.45 µM
Ki [2]: > 3.3 µM
Ki [3]: 0.095 µM
Ki [4]: > 3.3 µM

SMILES: Nc1nonc1-c1nc2ccccc2n1C1CCCC1
Ki [1]: 0.34 µM
Ki [2]: 0.21 µM
Ki [3]: 0.013 µM
Ki [4]: 0.72 µM

SMILES: Nc1ccc2c(c1)nc(-c1nonc1N)n2C1CCC1
Ki [1]: 0.085 µM
Ki [2]: 2.1 µM
Ki [3]: < 0.001 µM
Ki [4]: 0.034 µM

SMILES: CC(C)Cn1cc(C#N)nc1-c1nonc1N
Ki [1]: > 3.3 µM
Ki [2]: > 3.3 µM
Ki [3]: 1.6 µM
Ki [4]: > 3.3 µM

The remaining lines, values ahead:

Ki [1]: > 3.3 µM
Ki [2]: 7.3 µM
Ki [3]: 0.54 µM
Ki [4]: > 4 µM
SMILES: Cn1c(-c2nonc2N)nc2ccccc21

Ki [3]: 0.069 µM
Ki [4]: 1.4 µM
SMILES: Nc1nonc1-c1nc2ccccc2n1CC1CCC1

Ki [1]: 2.2 µM
Ki [2]: 1.1 µM
Ki [3]: < 0.001 µM
Ki [4]: 2.8 µM
SMILES: Nc1nonc1-c1nc2cc(O)ccc2n1C1CCC1

Ki [1]: > 3.3 µM
Ki [2]: 3.2 µM
Ki [3]: 0.019 µM
Ki [4]: 2.6 µM
SMILES: Cc1ccc2c(c1)nc(-c1nonc1N)n2C1CCC1

Ki [1]: 0.18 µM
Ki [2]: 0.38 µM
Ki [3]: 0.004 µM
Ki [4]: 0.54 µM
SMILES: Nc1nonc1-c1nc2ccccc2n1C1CCC1

Ki [1]: 0.94 µM
Ki [2]: 0.46 µM
Ki [3]: 0.039 µM
Ki [4]: 2.5 µM
SMILES: COc1ccc2c(c1)nc(-c1nonc1N)n2C1CCC1

Ki [1]: > 3.3 µM
Ki [2]: > 3.3 µM
Ki [3]: 0.41 µM
Ki [4]: > 3.3 µM
SMILES: COC(=O)c1ccc2c(c1)nc(-c1nonc1N)n2C1CCC1

Ki [1]: > 3.3 µM
Ki [2]: > 3.3 µM
Ki [3]: 2.2 µM
Ki [4]: > 3.3 µM
SMILES: CC(=O)Nc1ccc2c(c1)nc(-c1nonc1N)n2C1CCC1

Ki [1]: > 3.3 µM
Ki [2]: > 3.3 µM
Ki [3]: 0.016 µM
Ki [4]: 1.5 µM
SMILES: Nc1nonc1-c1nc2cc(CO)ccc2n1C1CCC1

Ki [1]: 0.33 µM
Ki [2]: 0.7 µM
Ki [3]: 0.05 µM
Ki [4]: 0.96 µM
SMILES: CCn1c(-c2nonc2N)nc2ccccc21 [GW549034X]
